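Test compounds were applied to cells in 96-well plates for 48 hours at 5 doses. TGI is the concentration that stops growth completely.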
Columns and labels:
Assay in all cases: NCI anticancer screen, dose series, 48 h
[1] = system: 786-0 renal
[2] = system: A498 renal
[3] = system: A549 NSCLC
[4] = system: ACHN renal
[5] = system: CAKI-1 renal
[6] = system: CCRF-CEM leukemia
[7] = system: COLO 205 colon
[8] = system: DLD-1 colon
[9] = system: DMS 114 small cell lung
[10] = system: DMS 273 small cell lung
[11] = system: EKVX NSCLC
[12] = system: HCC-2998 colon
[13] = system: HCT-116 colon
[14] = system: HCT-15 colon
[15] = system: HL-60(TB) leukemia
[16] = system: HOP-18 NSCLC
[17] = system: HOP-62 NSCLC
[18] = system: HOP-92 NSCLC
[19] = system: HT29 colon
[20] = system: IGROV1 ovarian
[21] = system: K-562 leukemia
[22] = system: KM12 colon
[23] = system: KM20L2 colon
[24] = system: LOX IMVI melanoma
[25] = system: LXFL 529 NSCLC
[26] = system: M14 melanoma
[27] = system: M19-MEL melanoma
[28] = system: MALME-3M melanoma
[29] = system: MOLT-4 leukemia
[30] = system: NCI-H226 lung
[31] = system: NCI-H23 lung
[32] = system: NCI-H460 lung
[33] = system: NCI-H522 lung
[34] = system: OVCAR-3 ovarian
[35] = system: OVCAR-4 ovarian
[36] = system: OVCAR-5 ovarian
[37] = system: OVCAR-8 ovarian
[38] = system: RPMI-8226 leukemia
[39] = system: RXF 393 renal
[40] = system: RXF-631 renal
[41] = system: SF-268 CNS
[42] = system: SF-295 CNS
[43] = system: SF-539 CNS
[44] = system: SK-MEL-2 melanoma
[45] = system: SK-MEL-28 melanoma
[46] = system: SK-MEL-5 melanoma
[47] = system: SK-OV-3 ovarian
[48] = system: SN12C renal
[49] = system: SNB-19 CNS
[50] = system: SNB-75 CNS
[51] = system: SNB-78 CNS
[52] = system: SR leukemia
[53] = system: SW-620 colon
[54] = system: TK-10 renal
[55] = system: U251 CNS
[56] = system: UACC-257 melanoma
[57] = system: UACC-62 melanoma
[58] = system: UO-31 renal

Measured: TGI

CC12CCC([C@H](N3CCOCC3)/C1=N\OCCN1CCCC1)C2(C)C (stereo partly drawn)
> 100 µM: all assays above

From PubChem BioAssay (NCI)
